Assay results published in PubChem BioAssay (NCI).
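Interpolation was linear, between the two tested concentrations surrounding the appropriate level; five concentrations were tested over 48 hours in 96-well plates. GI50 marks 50% less growth. TGI denotes the concentration required for complete inhibition of growth.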

How the values were obtained:
Assay in all cases: growth of human tumour cells (NCI), 48 h
786-0 renal = tested on: 786-0 renal
A498 renal = tested on: A498 renal
A549 NSCLC = tested on: A549 NSCLC
ACHN renal = tested on: ACHN renal
BT-549 breast = tested on: BT-549 breast
CAKI-1 renal = tested on: CAKI-1 renal
CCRF-CEM leukemia = tested on: CCRF-CEM leukemia
COLO 205 colon = tested on: COLO 205 colon
DU-145 prostate = tested on: DU-145 prostate
HCC-2998 colon = tested on: HCC-2998 colon
HCT-116 colon = tested on: HCT-116 colon
HCT-15 colon = tested on: HCT-15 colon
HL-60(TB) leukemia = tested on: HL-60(TB) leukemia
HOP-62 NSCLC = tested on: HOP-62 NSCLC
HOP-92 NSCLC = tested on: HOP-92 NSCLC
HS 578T breast = tested on: HS 578T breast
HT29 colon = tested on: HT29 colon
IGROV1 ovarian = tested on: IGROV1 ovarian
K-562 leukemia = tested on: K-562 leukemia
KM12 colon = tested on: KM12 colon
LOX IMVI melanoma = tested on: LOX IMVI melanoma
MALME-3M melanoma = tested on: MALME-3M melanoma
MCF7 breast = tested on: MCF7 breast
MDA-MB-231 breast = tested on: MDA-MB-231 breast
MDA-MB-435 = tested on: MDA-MB-435
MOLT-4 leukemia = tested on: MOLT-4 leukemia
NCI-H226 lung = tested on: NCI-H226 lung
NCI-H23 lung = tested on: NCI-H23 lung
NCI-H460 lung = tested on: NCI-H460 lung
NCI-H522 lung = tested on: NCI-H522 lung
NCI/ADR-RES ovarian = tested on: NCI/ADR-RES ovarian
OVCAR-3 ovarian = tested on: OVCAR-3 ovarian
OVCAR-4 ovarian = tested on: OVCAR-4 ovarian
OVCAR-5 ovarian = tested on: OVCAR-5 ovarian
OVCAR-8 ovarian = tested on: OVCAR-8 ovarian
PC-3 prostate = tested on: PC-3 prostate
RPMI-8226 leukemia = tested on: RPMI-8226 leukemia
RXF 393 renal = tested on: RXF 393 renal
SF-268 CNS = tested on: SF-268 CNS
SF-295 CNS = tested on: SF-295 CNS
SF-539 CNS = tested on: SF-539 CNS
SK-MEL-2 melanoma = tested on: SK-MEL-2 melanoma
SK-MEL-28 melanoma = tested on: SK-MEL-28 melanoma
SK-MEL-5 melanoma = tested on: SK-MEL-5 melanoma
SK-OV-3 ovarian = tested on: SK-OV-3 ovarian
SN12C renal = tested on: SN12C renal
SNB-19 CNS = tested on: SNB-19 CNS
SNB-75 CNS = tested on: SNB-75 CNS
SR leukemia = tested on: SR leukemia
SW-620 colon = tested on: SW-620 colon
T-47D breast = tested on: T-47D breast
TK-10 renal = tested on: TK-10 renal
U251 CNS = tested on: U251 CNS
UACC-257 melanoma = tested on: UACC-257 melanoma
UACC-62 melanoma = tested on: UACC-62 melanoma
UO-31 renal = tested on: UO-31 renal

COc1cc(Nc2ccnc(NCCNc3ccnc4cc(Cl)ccc34)n2)cc(OC)c1
GI50 (786-0 renal): 1560 nM | TGI (786-0 renal): 2900 nM | GI50 (A498 renal): 175 nM | TGI (A498 renal): 2200 nM | GI50 (A549 NSCLC): 3230 nM | TGI (A549 NSCLC): 14800 nM | GI50 (ACHN renal): 1950 nM | TGI (ACHN renal): 5160 nM | GI50 (BT-549 breast): 1860 nM | TGI (BT-549 breast): 4240 nM | GI50 (CAKI-1 renal): 2170 nM | TGI (CAKI-1 renal): 6590 nM | GI50 (CCRF-CEM leukemia): 2450 nM | TGI (CCRF-CEM leukemia): 9690 nM | GI50 (COLO 205 colon): 1610 nM | TGI (COLO 205 colon): 3460 nM | GI50 (DU-145 prostate): 4030 nM | TGI (DU-145 prostate): 15600 nM | GI50 (HCC-2998 colon): 1750 nM | TGI (HCC-2998 colon): 3780 nM | GI50 (HCT-116 colon): 830 nM | TGI (HCT-116 colon): 2580 nM | GI50 (HCT-15 colon): 1370 nM | TGI (HCT-15 colon): 3420 nM | GI50 (HL-60(TB) leukemia): 2220 nM | TGI (HL-60(TB) leukemia): 5280 nM | GI50 (HOP-62 NSCLC): 2140 nM | TGI (HOP-62 NSCLC): 8360 nM | GI50 (HOP-92 NSCLC): 811 nM | TGI (HOP-92 NSCLC): 4450 nM | GI50 (HS 578T breast): 2180 nM | TGI (HS 578T breast): 5930 nM | GI50 (HT29 colon): 588 nM | TGI (HT29 colon): 3760 nM | GI50 (IGROV1 ovarian): 1890 nM | TGI (IGROV1 ovarian): 5560 nM | GI50 (K-562 leukemia): 843 nM | TGI (K-562 leukemia): 3820 nM | GI50 (KM12 colon): 3340 nM | TGI (KM12 colon): 14200 nM | GI50 (LOX IMVI melanoma): 1470 nM | TGI (LOX IMVI melanoma): 2970 nM | GI50 (MALME-3M melanoma): 1860 nM | TGI (MALME-3M melanoma): 3690 nM | GI50 (MCF7 breast): 1610 nM | TGI (MCF7 breast): 3970 nM | GI50 (MDA-MB-231 breast): 1410 nM | TGI (MDA-MB-231 breast): 3740 nM | GI50 (MDA-MB-435): 1550 nM | TGI (MDA-MB-435): 2950 nM | GI50 (MOLT-4 leukemia): 1840 nM | TGI (MOLT-4 leukemia): 8900 nM | GI50 (NCI-H226 lung): 2950 nM | TGI (NCI-H226 lung): 22800 nM | GI50 (NCI-H23 lung): 1860 nM | TGI (NCI-H23 lung): 14100 nM | GI50 (NCI-H460 lung): 1450 nM | TGI (NCI-H460 lung): 5310 nM | GI50 (NCI-H522 lung): 1780 nM | TGI (NCI-H522 lung): 5190 nM | GI50 (NCI/ADR-RES ovarian): 3790 nM | TGI (NCI/ADR-RES ovarian): 16400 nM | GI50 (OVCAR-3 ovarian): 1890 nM | TGI (OVCAR-3 ovarian): 5030 nM | GI50 (OVCAR-4 ovarian): 1330 nM | TGI (OVCAR-4 ovarian): 6560 nM | GI50 (OVCAR-5 ovarian): 1660 nM | TGI (OVCAR-5 ovarian): 6270 nM | GI50 (OVCAR-8 ovarian): 2520 nM | TGI (OVCAR-8 ovarian): 11500 nM | GI50 (PC-3 prostate): 2510 nM | TGI (PC-3 prostate): 14400 nM | GI50 (RPMI-8226 leukemia): 1410 nM | TGI (RPMI-8226 leukemia): 4450 nM | GI50 (RXF 393 renal): 1380 nM | TGI (RXF 393 renal): 2940 nM | GI50 (SF-268 CNS): 3100 nM | TGI (SF-268 CNS): 12500 nM | GI50 (SF-295 CNS): 961 nM | TGI (SF-295 CNS): 2430 nM | GI50 (SF-539 CNS): 1480 nM | TGI (SF-539 CNS): 2860 nM | GI50 (SK-MEL-2 melanoma): 1910 nM | TGI (SK-MEL-2 melanoma): 4180 nM | GI50 (SK-MEL-28 melanoma): 1760 nM | TGI (SK-MEL-28 melanoma): 3290 nM | GI50 (SK-MEL-5 melanoma): 1690 nM | TGI (SK-MEL-5 melanoma): 3240 nM | GI50 (SK-OV-3 ovarian): 8580 nM | TGI (SK-OV-3 ovarian): 21000 nM | GI50 (SN12C renal): 2190 nM | TGI (SN12C renal): 12400 nM | GI50 (SNB-19 CNS): 2380 nM | TGI (SNB-19 CNS): 8900 nM | GI50 (SNB-75 CNS): 1730 nM | TGI (SNB-75 CNS): 3520 nM | GI50 (SR leukemia): 1650 nM | TGI (SR leukemia): 6850 nM | GI50 (SW-620 colon): 1660 nM | TGI (SW-620 colon): 4180 nM | GI50 (T-47D breast): 1730 nM | TGI (T-47D breast): 4450 nM | GI50 (TK-10 renal): 3720 nM | TGI (TK-10 renal): 9710 nM | GI50 (U251 CNS): 1610 nM | TGI (U251 CNS): 4270 nM | GI50 (UACC-257 melanoma): 1820 nM | TGI (UACC-257 melanoma): 3870 nM | GI50 (UACC-62 melanoma): 1600 nM | TGI (UACC-62 melanoma): 3080 nM | GI50 (UO-31 renal): 1190 nM | TGI (UO-31 renal): 2810 nM
